In patent US6569860B2, “Alkoxycarbonylamino heteroaryl carboxylic acid derivatives as IP antagonists” (Roćhe Palo Alto LLC, priority 2001, dated 2003):

Compound | melting point [°C]
O=C(Nc1cnc(-c2ccccc2)nc1C(=O)O)OCc1cc2cc(-c3ccccc3)ccc2o1 [Example 1, 2-Phenyl-5-(5-phenyl-benzofuran-2-ylmethoxycarbonylamino)-pyrimidine-4-carboxylic Acid] | 184 to 185
O=C(Nc1nn(-c2ccccc2)cc1C(=O)O)OCc1cc2cc(-c3ccccc3)ccc2o1 [Example 2, 1-Phenyl-3-(5-phenyl-benzofuran-2-ylmethoxycarbonylamino)-1H-pyrazole-4-carboxylic Acid] | 220.6 to 220.8
O=C(Nc1cnccc1C(=O)O)OCc1cc2cc(-c3ccccc3)ccc2o1 [Example 3, 3-(5-Phenyl-benzofuran-2-ylmethoxycarbonylamino)-isonicotinic Acid] | 235.7 to 238.9
